This passage reports IC50, TGI50 and Ratio results from ChEMBL document CHEMBL1130907, “The novel cyclopropapyrroloindole(CPI) bisalkylators bearing 3,3'-(1,4-phenylene)diacryloyl group as a linker” (Bioorg Med Chem Lett, 1998).

In brackets after ≈: the same amount, converted by molar mass.

Experiment [1] relates to HeLa. Nature of the experiment: In vitro cytotoxicity against HeLaS3 human uterine cervix carcinoma. The class given is functional, cell-based.
For experiment [2], the system named is Mus musculus. The experiment in a line: In vivo antitumor activity against colon 26 murine adenocarcinoma in male CDF1 mice and was expressed as 50% tumor growth inhibition. Type of experiment: functional.
Experiment [3] in a line: Ratio of MTD, maximum dose with in 10% body weight loss (ug/Kg) to that of TGI50 was reported. Type of experiment: functional.
Experiment [4] has as its system HeLa. The experiment in a line: In vitro cytotoxicity against HeLaS3 human uterine cervix carcinoma. The class given is functional, cell-based.
Where [5] appears, read: Homo sapiens, HeLa, read-out: IC50.

In the case of `COC(=O)c1cc2c3c(cc(O)c2[nH]1)N(C(=O)/C=C/c1ccc(/C=C/C(=O)N2C[C@H](CCl)c4c2cc(O)c2[nH]c(C(=O)OC)cc42)cc1)C[C@H]3CCl`, the IC50 in experiment [1] (setting [5]) turned out to be 0.023 ng/mL (≈ 0.0309 nM). Also, in experiment [2], the TGI50 amounted to 100 µg/kg.
In the case of `COC(=O)c1c(C(F)(F)F)[nH]c2c(O)cc3c(c12)[C@H](CCl)CN3C(=O)/C=C/c1ccc(/C=C/C(=O)N2C[C@H](CCl)c3c2cc(O)c2[nH]c(C(F)(F)F)c(C(=O)OC)c32)cc1`, in experiment [1] (hela), the half-maximal inhibitory concentration (IC50) was determined as 0.0027 ng/mL (≈ 0.00307 nM). The same compound yielded a TGI50 in experiment [2] of 0.254 µg/kg. Besides, in experiment [3], the Ratio is recorded as 30.7.
Turning to `O=C(/C=C/c1ccc(/C=C/C(=O)N2C[C@H](CCl)c3c2cc(O)c2[nH]c4ccccc4c32)cc1)N1C[C@@H](CCl)c2c1cc(O)c1[nH]c3ccccc3c21`, in experiment [1] (setting [5]), the IC50 is 0.072 ng/mL (≈ 0.0989 nM). In experiment [2], the TGI50 is 3.8 µg/kg. In addition, the Ratio in experiment [3] is 8.2.
In experiment [4], `COC(=O)c1c[nH]c2c(O)cc3c(c12)[C@H](CCl)CN3C(=O)/C=C/c1ccc(/C=C/C(=O)N2C[C@H](CCl)c3c2cc(O)c2[nH]cc(C(=O)OC)c32)cc1` showed an IC50 of 0.00035 ng/mL (≈ 0.000471 nM). In experiment [2], this compound displayed a TGI50 of 0.757 µg/kg. The Ratio in experiment [3] is 10.3.
Turning to `Cc1c[nH]c2c(O)cc3c(c12)[C@H](CCl)CN3C(=O)/C=C/c1ccc(/C=C/C(=O)N2C[C@H](CCl)c3c2cc(O)c2[nH]cc(C)c32)cc1`, the half-maximal inhibitory concentration (IC50) in experiment [1] (hela) amounted to 0.0013 ng/mL (≈ 0.00198 nM). The compound further yielded a TGI50 in experiment [2] of 1.41 µg/kg. Also, the Ratio in experiment [3] amounted to 5.5.
Turning to `COC(=O)c1c(C)[nH]c2c(O)cc3c(c12)[C@H](CCl)CN3C(=O)/C=C/c1ccc(/C=C/C(=O)N2C[C@H](CCl)c3c2cc(O)c2[nH]c(C)c(C(=O)OC)c32)cc1`, the concentration for half-maximal inhibition (IC50) in experiment [4] worked out at 0.00046 ng/mL (≈ 0.000596 nM). In experiment [2], this compound came in with a TGI50 of 0.891 µg/kg. The Ratio in experiment [3] was found to be 8.8.
Regarding `COC(=O)c1c(C(F)(F)F)[nH]c2c(O)cc3c(c12)[C@H](CCl)CN3C(=O)c1cc2cc(-c3ccc4[nH]c(C(=O)N5C[C@@H](CCl)c6c5cc(O)c5[nH]c(C(F)(F)F)c(C(=O)OC)c65)cc4c3)ccc2[nH]1`, in experiment [1] (hela), the IC50 came out at 0.0049 ng/mL (≈ 0.00499 nM). In experiment [2], the TGI50 was determined as 0.3 µg/kg. Also, in experiment [3], the Ratio stood at 3.3.
Consider `Cc1c[nH]c2c(O)cc3c(c12)[C@H](CCl)CN3C(=O)c1cc2cc(NC(=O)Nc3ccc4[nH]c(C(=O)N5C[C@@H](CCl)c6c5cc(O)c5[nH]cc(C)c65)cc4c3)ccc2[nH]1` [BIZELESIN], for which, in experiment [2], the TGI50 amounted to 3.72 µg/kg. Moreover, the Ratio in experiment [3] is given as 8.4.
